Test results: PMC12246642 (iScience, 2025)

Experiments:
[1] = target: T1, SARS-CoV-2 Mpro (Severe acute respiratory syndrome coronavirus 2, UniProt P0DTD1); assay: biochemical; format: biochemical; conditions: aldehyde hydration penalty taken into account
[2] = target: T1, SARS-CoV-2 Mpro; assay: Covalent bond (adduct) formation kinetics by IR-MALDESI intact protein MS; format: binding; conditions: for covalent complex formation in the titration of compound versus Mpro: up to 5-fold molar excess of compound, unquenched condition for compound 5
[3] = target: His tag SARS-CoV-2 3CLpro (1-306) F305A, Q306A (Severe acute respiratory syndrome coronavirus 2, UniProt P0DTD1, F3568A/Q3569A); format: binding

Compound	likely affinity accounting for the hydration penalty [1]	time for which covalent binding persists after chase (reversibility of adduct formation) [2]	covalent complex formation in the titration of compound versus Mpro [2]	Kd [3]	T1/2 [3]
COc1cccc2[nH]c(C(=O)N[C@@H](CC3CC3)C(=O)N[C@H](C=O)C[C@@H]3CCNC3=O)cc12 [Compound 1, N-((S)-3-cyclopropyl-1-oxo-1-(((S)-1-oxo-3-((S)-2-oxopyrrolidin-3-yl)propan-2-yl)amino)propan-2-yl)-4-methoxy-1H-indole-2-carboxamide]	~10 pM	at least 4 h	did not reach saturation	–	–
O=C[C@H](C[C@@H]1CCNC1=O)NC(=O)[C@H](CC1CC1)NC(=O)OCc1ccccc1 [Compound 2, benzyl ((S)-3-cyclopropyl-1-oxo-1-(((S)-1-oxo-3-((S)-2-oxopyrrolidin-3-yl)propan-2-yl)amino)propan-2-yl)carbamate]	~10 pM	–	–	–	–
COc1cccc2[nH]c(C(=O)N[C@@H](CC3CC3)C(=O)N[C@H](C#N)C[C@@H]3CCNC3=O)cc12 [Compound 5, N-((S)-1-(((S)-1-cyano-2-((S)-2-oxopyrrolidin-3-yl)ethyl)amino)-3-cyclopropyl-1-oxopropan-2-yl)-4-methoxy-1H-indole-2-carboxamide]	–	≤ 1 h	~100%	–	–
CS(=O)(=O)CC[C@@H](C#N)NC(=O)[C@H](CC1CC1)NC(=O)OCc1ccccc1 [Compound 8, benzyl ((S)-1-(((S)-1-cyano-3-(methylsulfonyl)propyl)amino)-3-cyclopropyl-1-oxopropan-2-yl)carbamate]	–	–	–	No Activity	No activity
